The test system of data set [1] is Punta Toro virus. Kind of data set: Antiviral activity, Punta Toro virus. The data set is classed as cell-based. The settings on record: Table 3, reference compounds.
The test system of data set [2] is Coxsackie virus B4. The data set can be described thus: microbe, parasite or virus in culture. The data set is classed as cell-based. The conditions noted are these: Table 3, reference compounds.
For data set [3], the system named is Sindbis virus. Kind of data set: Antiviral activity, Sindbis virus. The data set is classed as cell-based. The conditions noted are these: Table 3, reference compounds.
Data set [4] deals with Herpes simplex virus-1 TK KOS-ACV^r. Kind of data set: Antiviral activity, Herpes simplex virus-1 TK KOS-ACVr. The data set is classed as cell-based. The conditions noted are these: Human alphaherpesvirus 1, read-out: EC50 Herpes simplex virus-1 TK KOS-ACV^r.
Data set [5] has as its system Herpes simples virus-2 (G). The data set can be described thus: Antiviral activity, Herpes simplex virus-2 (G). The data set is classed as cell-based. The settings on record: Human alphaherpesvirus 2; Table 4, reference compounds.
The subject of data set [6] is Herpes simplex virus-1 (KOS). The data set can be described thus: Antiviral activity, Herpes simplex virus-1 (KOS). The data set is classed as cell-based. The settings on record: Human alphaherpesvirus 1; Table 4, reference compounds.
Data set [7] deals with Vaccinia virus. Kind of data set: microbe, parasite or virus in culture. The data set is classed as cell-based. The conditions noted are these: Orthopoxvirus vaccinia, read-out: EC50 Vaccinia virus.
The test system of data set [8] is Vesicular stomatitis virus. The data set can be described thus: microbe, parasite or virus in culture. The data set is classed as cell-based. The conditions noted are these: read-out: EC50 Vesicular stomatitis virus.
Data set [9] has as its system Para-influenza-3 virus. The data set can be described thus: Antiviral activity, Para-influenza-3 virus. It counts as cell-based. The conditions noted are these: Table 3, reference compounds.
Data set [10] has as its system Reovirus-1. The data set can be described thus: Antiviral activity, Reovirus-1. It counts as cell-based. The conditions noted are these: Table 3, reference compounds.
In data set [11] the test system is human corona (SARS) virus. The data set can be described thus: microbe, parasite or virus in culture. The data set is classed as cell-based. The settings on record: for Human Corona virus EC50: human corona (SARS) virus; for EC50: Severe acute respiratory syndrome coronavirus, read-out: Human Corona virus EC50.
Data set [12] relates to Feline Corona virus. The data set can be described thus: Activity on feline corona virus in CRFK cells. It counts as cell-based.
The test system of data set [13] is CRFK cells. The settings on record: cytotoxicity, human corona virus test.
In data set [14] the test system is HIV-2. Kind of data set: Antiretrovirus assay, HIV-2. The settings on record: for EC50: Human immunodeficiency virus 2, read-out: EC50 HIV-2.
Data set [15] relates to CRFK cells. The settings on record: cytotoxicity, feline corona virus test.
Data set [16] concerns HIV-1.
Data set [17] concerns HIV-1. Kind of data set: microbe, parasite or virus in culture. The conditions noted are these: Human immunodeficiency virus 1, CCRF-CEM, read-out: EC50 HIV-1.
Data set [18] in a line: in vitro. The conditions noted are these: human, CEM cells.
Data set [19] has as its system Influenza A H3N2 subtype. Kind of data set: Anti-influenza activity in MDCK cells, Influenza A H3N2. It counts as cell-based. The conditions noted are these: for EC50: Influenza A virus, reference compounds. The source says:
(§1) MDCK cells (Madin Darby canine kidney cells) have been used for the experiments shown in table 5 using standard procedures known in the art.

The subject of data set [20] is Influenza A H1N1 subtype. Kind of data set: Anti-influenza activity in MDCK cells, Influenza A H1N1. The data set is classed as cell-based. The conditions noted are these: for EC50: Influenza A virus, reference compounds.
Excerpt: as §1

For data set [21], the system named is Influenza B. Kind of data set: Anti-influenza activity in MDCK cells, Influenza B. It counts as cell-based.
Data set [22] has as its system CEM cells. Kind of data set: Cytostatic/cytotoxic activity, inhibition of CEM cell proliferation. The settings on record: Table 1.
[23] abbreviates: cell viability, formazan-based MTS assay.

Values after ≈ are worked out from the molar mass of the structure shown. Where two headings read alike, the source gives them in different places. Where only a bound is given, the exact number is not on record here.

The record followed here is US8450318B2 (priority 2007, dated 2013).

Regarding `Nc1ncnc2c1ncn2C[C@H](O)CO` [(S)-DHPA], the EC50 in data set [1], in [2] and in data set [3] was greater than 250 µM in each case.
With `Nc1nc2c(ncn2COCCO)c(=O)[nH]1` [Acyclovir], the EC50 – broadly, the midpoint of the concentration-response curve – in data set [4] was 150 µM; in data set [5], 0.08 µM; in data set [6], 0.4 µM; in data set [7] it was greater than 250 µM; in data set [8], greater than 250 µM.
For `O=c1[nH]c(=O)n([C@H]2C[C@H](O)[C@@H](CO)O2)cc1/C=C/Br` [Brivudin], the concentration giving a half-maximal response (EC50) is greater than 250 µM in data set [1] (Punta Toro virus); 50 µM in [4]; 10 µM in data set [5]; 0.016 µM in data set [6]; greater than 250 µM in data set [2] (Enterovirus B, B4); greater than 250 µM in [9]. Moreover, the EC50 is greater than 250 µM in [3] (Sindbis virus), greater than 250 µM in data set [10], 2 µM in data set [7] and greater than 250 µM in data set [8].
With `CCc1c(CNCC2COCCOCCOCCOCCO2)c(CC)c(CNc2cc(C)cc(C)n2)c(CC)c1CNc1cc(C)cc(C)n1` (stereo not shown) [Co12], in data set [11], the “Human Corona virus EC50” value was found to be 1.9 ± 0.6 µg/mL. For the same compound, the “Feline Corona virus EC50” value in data set [12] is 1.4 ± 0.2 µg/mL. Moreover, the “Human Corona virus CC50” value in data set [13] worked out at 13 ± 1.2 µg/mL. The “EC50 HIV-2” value in data set [14] (Table 1a) was greater than 4 µg/mL. Besides, the “Feline Corona virus CC50” value in data set [15] was determined as 11 ± 0 µg/mL. The “EC50 HIV-1” value in data set [16] (Table 1a) came to 1.35 ± 0.29 µg/mL (≈ 1.95 µM).
Consider `Cc1cc(C)nc(NCc2c(C)c(CNc3cc(C)cc(C)n3)c(C)c(CNc3cc(C)cc(C)n3)c2C)c1` [Compound 3a, 1,3,5-Tris[(4,6-dimethyl-pyridin-2-yl)aminomethyl]-2,4,6-trimethyl-benzene], for which the melting point (in general, the temperature, or range, at which the solid turns liquid) lay in the range of 193 to 195 °C. For the same compound, in [11], the EC50 worked out at 1.3 ± 0.2 µg/mL (≈ 2.49 µM). For the same compound, in data set [12], the EC50 is 0.8 ± 0.6 µg/mL (≈ 1.53 µM). Besides, the EC50 in data set [14] was greater than 0.8 µg/mL. Moreover, the EC50 in [17] was greater than 0.8 µg/mL. Moreover, half-maximal cytotoxicity in data set [18] (CC50) was put at 2.63 ± 0.08 µg/mL (≈ 5.03 µM).
`CCc1c(CNc2cc(C)cc(C)n2)c(CC)c(CNc2cc(C)cc(C)n2)c(CC)c1CNc1cc(C)cc(C)n1` [Compound 3b, 1,3,5-Tris[(4,6-dimethyl-pyridin-2-yl)aminomethyl]-2,4,6-triethyl-benzene] came in with a melting point of 183 to 185 °C. The EC50 in data set [11] turned out to be 8.6 ± 4.9 µg/mL (≈ 15.2 µM). This compound also returned a half-maximal effective concentration (EC50) in [12] of 1.1 ± 0.6 µg/mL (≈ 1.95 µM). The EC50 in data set [14] is greater than 0.8 µg/mL. Further, the EC50 in [17] was greater than 0.8 µg/mL. Moreover, the CC50 (as a rule, the concentration that lowers cell viability or growth by half) in [18] stood at 2.87 ± 0.23 µg/mL (≈ 5.08 µM).
As for `Cc1ccc2ccc(NCc3c(C)c(CNc4ccc5ccc(C)nc5n4)c(C)c(CNc4ccc5ccc(C)nc5n4)c3C)nc2n1` [Compound 24], the “Human Corona virus EC50” value in [11] was 38 ± 1 µg/mL. Besides, in [12], the “Feline Corona virus EC50” value amounted to 42 ± 0 µg/mL. Besides, the “Human Corona virus CC50” value in [13] is greater than 100 µg/mL. In addition, the “Feline Corona virus CC50” value in [15] is greater than 100 µg/mL.
In the case of `CCc1c(CNc2ccc3ccc(C)nc3n2)c(CC)c(CNc2ccc3ccc(C)nc3n2)c(CC)c1CNc1ccc2ccc(C)nc2n1` [Compound 25], the “Human Corona virus EC50” value in [11] was 20 ± 5 µg/mL. The “Feline Corona virus EC50” value in [12] came to 9.1 ± 0.4 µg/mL. In addition, the “Human Corona virus CC50” value in data set [13] is greater than 100 µg/mL. Also, in data set [19] (setting [23]), the “EC50 Influenza A H3N2 subtype MTS” value was greater than 4 µg/mL. Besides, the “EC50 Influenza A H3N2 subtype visual CPE score” value in [19] (visual scoring of the CPE) was greater than 4 µg/mL. The “EC50 Influenza A H1N1 subtype MTS” value in [20] (setting [23]) was greater than 4 µg/mL. In data set [20] (visual scoring of the CPE), the “EC50 Influenza A H1N1 subtype visual CPE score” value was greater than 4 µg/mL. The “EC50 Influenza B MTS” value in [21] (setting [23]) was greater than 4 µg/mL. In addition, in [21] (visual scoring of the CPE), the “EC50 Influenza B visual CPE score” value is greater than 4 µg/mL. In data set [14] (Table 1), the “EC50 HIV-2” value is greater than 20 µg/mL. In addition, the “cytotoxicity (in words)” value in [22] is reported as “low cytotoxicity”. In data set [22] (50% cytostatic concentration, CEM cell proliferation), this compound showed a CC50 of 81.7 ± 26.0 µg/mL (≈ 121 µM). For the same compound, in data set [15], the “Feline Corona virus CC50” value was 92 ± 9 µg/mL. Further, the “EC50 HIV-1” value in data set [16] (Table 1, CEM cells, prevention of syncytium formation by 50%, 4 to 5 days) is 1.25 ± 0.35 µg/mL (≈ 1.85 µM).
Consider `Nc1nc(O)c2ncn(COC(CO)CO)c2n1` [Ganciclovir], for which the EC50 is 12 µM in data set [4]; 0.032 µM in data set [5]; 0.0064 µM in [6]; 100 µM in data set [7]; greater than 150 µM in [8].
Regarding `NC(=O)c1ncn([C@@H]2O[C@H](CO)[C@@H](O)[C@H]2O)n1` [Ribavirin], the EC50 in [19] (H3N2, MTS, read-out: EC50 Influenza A H3N2 subtype MTS) is 8.9 µM; in data set [19] (H3N2, visual CPE, read-out: EC50 Influenza A H3N2 subtype visual CPE score), 8.9 µM; in data set [20] (H1N1, MTS, read-out: EC50 Influenza A H1N1 subtype MTS), 9 µM; in [20] (H1N1, visual CPE, read-out: EC50 Influenza A H1N1 subtype visual CPE score) it was 8.9 µM; in data set [1] (Punta Toro virus), 150 µM; in data set [4], 150 µM. The EC50 in data set [5] is 150 µM; in data set [6], 50 µM; in data set [2] (Enterovirus B, B4), greater than 250 µM; in data set [9], 250 µM; in data set [3] (Sindbis virus), 250 µM; in [10], 150 µM. Moreover, the EC50 was 150 µM in data set [7] and greater than 250 µM in [8].
